Assay [1] relates to A. baumannii J2. Briefly: Preliminary MBC without and with sub-inhibitory polymyxin B (Example 4). The class given is cell-based, Acinetobacter baumannii. Conditions: Acinetobacter baumannii, J2, read-out: MBC without PB.
Assay [2] has as its system A. baumannii A329. The description is as above. The class given is cell-based, Acinetobacter baumannii. Conditions: Acinetobacter baumannii.
Assay [3] deals with A. baumannii ATCC 19606. Kind of assay: MIC determination for Acinetobacter strains (Example 3). It is filed as cell-based. Conditions: ATCC19606, reference strain.
Assay [4] relates to 11 strains of A. baumannii and one strain of Acinetobacter sp. Kind of assay: Preliminary MBC without and with sub-inhibitory polymyxin B, whole panel (Example 4; also strains not listed separately). It is filed as cell-based. Conditions: Acinetobacter baumannii.
Assay [5] concerns A. baumannii A473. Briefly: MIC without and with sub-inhibitory polymyxin B (Example 4). The class given is cell-based, Acinetobacter baumannii. The settings on record: Acinetobacter baumannii, A473, A. baumannii A473; without polymyxin B; 1st experiment; read-out: MIC without PB.
For assay [6], the system named is A. baumannii A390. Kind of assay: Preliminary MBC without and with sub-inhibitory polymyxin B (Example 4). The class given is cell-based, Acinetobacter baumannii. The settings on record: Acinetobacter baumannii, A390, read-out: MBC without PB.
The subject of assay [7] is A. baumannii A473. Briefly: MIC determination for Acinetobacter strains (Example 3). It is filed as cell-based. The settings on record: LEV R, CIP R, MRP R, IMP R, AMK R, TET R.
The test system of assay [8] is A. baumannii A489. The assay is described as above. The settings on record: LEV R, CIP R, MRP R, IMP R, AMK R, TET R. It is filed as cell-based.
The test system of assay [9] is A. baumannii A472. Kind of assay: Preliminary MBC without and with sub-inhibitory polymyxin B (Example 4). The class given is cell-based, Acinetobacter baumannii. The settings on record: Acinetobacter baumannii, A472, read-out: MBC without PB, A. baumannii A472, without polymyxin B, 2nd experiment.
Assay [10] relates to A. baumannii A489. Described as above. The class given is cell-based, Acinetobacter baumannii. Conditions: Acinetobacter baumannii, A489, read-out: MBC without PB, A. baumannii A489, without polymyxin B, 2nd experiment.
The subject of assay [11] is A. baumannii A472. Briefly: MIC without and with sub-inhibitory polymyxin B (Example 4). It is filed as cell-based, Acinetobacter baumannii. The settings on record: Acinetobacter baumannii, A472, A. baumannii A472, without polymyxin B, read-out: MIC without PB.
In assay [12] the test system is A. baumannii A401. The assay is described as above. The class given is cell-based, Acinetobacter baumannii. The settings on record: Acinetobacter baumannii, A401, A baumannii A 401; without polymyxin B; 2nd experiment; visual reading; read-out: MIC without PB.
For assay [13], the system named is A. baumannii A489. The assay is described as above. The class given is cell-based, Acinetobacter baumannii. Conditions: Acinetobacter baumannii, A489, A. baumannii A489, without polymyxin B, read-out: MIC without PB.
For assay [14], the system named is A. baumannii ATCC 19606. Described as above. It is filed as cell-based, Acinetobacter baumannii. Conditions: Acinetobacter baumannii, ATCC19606, A. baumannii ATCC 19606, without polymyxin B, read-out: MIC without PB.
Assay [15] relates to Acinetobacter sp. (H064200250). Kind of assay: Preliminary MBC without and with sub-inhibitory polymyxin B (Example 4). The settings on record: Acinetobacter, read-out: MBC without PB. The class given is cell-based. The protocol: The plates were incubated for 18-20 hours at 37° C. The MBC was read as the lowest concentration at which colony growth was ca. 90% less than the positive control (i.e. usually where single colonies or no colonies were observed).

Assay [16] deals with Acinetobacter spp. H064200250. Briefly: MIC determination for Acinetobacter strains (Example 3). It is filed as cell-based, Acinetobacter sp. The settings on record: LEV R, CIP R, MRP R, IMP I.
Assay [17] relates to A. baumannii A472. The description is as above. The class given is cell-based. The settings on record: LEV R, CIP R, MRP I, IMP I, AMK R, TET R.
Assay [18] has as its system Acinetobacter sp. (H064200250). Briefly: MIC without and with sub-inhibitory polymyxin B (Example 4). Conditions: Acinetobacter, without polymyxin B, read-out: MIC without PB. It is filed as cell-based.
Assay [19] concerns A. baumannii A390. Described as above. It is filed as cell-based, Acinetobacter baumannii. Conditions: Acinetobacter baumannii, A390, A. baumannii A390, without polymyxin B, read-out: MIC without PB.
The test system of assay [20] is A. baumannii A401. Briefly: Preliminary MBC without and with sub-inhibitory polymyxin B (Example 4). The class given is cell-based, Acinetobacter baumannii. The settings on record: Acinetobacter baumannii, A401, read-out: MBC without PB.
Assay [21] relates to resistant strains of A. baumannii and one strain of Acinetobacter sp. Kind of assay: MIC without and with sub-inhibitory polymyxin B, whole panel / MIC ranges (Example 4; also strains not listed separately). The class given is cell-based. The settings on record: for MIC: Acinetobacter baumannii, without polymyxin B, 2nd experiment.
The test system of assay [22] is A. baumannii A390. Briefly: MIC determination for Acinetobacter strains (Example 3). The class given is cell-based. The settings on record: LEV R, CIP R, MRP R, IPM I, AMK R, TET I.
Assay [23] concerns A. baumannii ATCC 19606. Briefly: Preliminary MBC without and with sub-inhibitory polymyxin B (Example 4). The settings on record: Acinetobacter baumannii, ATCC19606, read-out: MBC without PB, A. baumannii ATCC 19606, without polymyxin B, preliminary MBC. It is filed as cell-based, Acinetobacter baumannii.
For assay [24], the system named is B. anthracis. Briefly: microbe, parasite or virus in culture. The class given is cell-based. The settings on record: Bacillus anthracis, read-out: MIC B. anthracis.
Assay [25] has as its system F. tularensis. Kind of assay: microbe, parasite or virus in culture. The class given is cell-based. Conditions: Francisella tularensis, read-out: MIC F. tularensis.
For assay [26], the system named is B. pseudomallei. Kind of assay: microbe, parasite or virus in culture. It is filed as cell-based. Conditions: Burkholderia pseudomallei, read-out: MIC B. pseudomallei.
For assay [27], the system named is B. abortus. Kind of assay: microbe, parasite or virus in culture. It is filed as cell-based. The settings on record: Brucella abortus, read-out: MIC B. abortus.

These results are taken from patent US10155021B2, “Antimicrobial 4-oxoquinolizines” (Emergent Product Development Gaithersburg Inc., priority 2011, dated 2018).

SMILES strings stand for the structures. In brackets after ≈: the same amount, converted by molar mass. Where two headings read alike, the source gives them in different places.

On to `COc1c(N2C[C@@H]3CCCN[C@@H]3C2)c(F)cc2c(=O)c(C(=O)O)cn(C3CC3)c12` [Moxifloxacin, reference compound], for which the MBC in assay [1] came out at 32 µg/mL (≈ 79.7 µM); in [2] (A329, read-out: MBC without PB, A. baumannii A329, without polymyxin B, 1st experiment), 64 µg/mL (≈ 159 µM); in assay [2] (A329, read-out: MBC without PB, A. baumannii A329, without polymyxin B, 2nd experiment), 32 µg/mL (≈ 79.7 µM); in [4] (NCTC13301, read-out: MBC without PB, A. baumannii NCTC 13301, without polymyxin B, 1st experiment), 32 µg/mL (≈ 79.7 µM); in assay [4] (NCTC13301, read-out: MBC without PB, A. baumannii NCTC 13301, without polymyxin B, 2nd experiment), 64 µg/mL (≈ 159 µM); in assay [4] (read-out: MBC without PB, A. baumannii A14, without polymyxin B, 1st experiment), 32 µg/mL (≈ 79.7 µM). Further, the MBC worked out at 32 µg/mL (≈ 79.7 µM) in [4] (read-out: MBC without PB, A. baumannii A14, without polymyxin B, 2nd experiment); 16 µg/mL (≈ 39.9 µM) in [6]; 16 µg/mL (≈ 39.9 µM) in assay [9]; 16 µg/mL (≈ 39.9 µM) in assay [10]; 16 µg/mL (≈ 39.9 µM) in assay [15]; 16 µg/mL (≈ 39.9 µM) in assay [20]. In addition, the minimal bactericidal concentration (MBC) in [23] (2nd experiment) came out at 1 µg/mL (≈ 2.49 µM); in assay [23] (1st experiment), 0.5 µg/mL (≈ 1.25 µM). Further, the MIC was 0.5 µg/mL (≈ 1.25 µM) in assay [3]; 16 µg/mL (≈ 39.9 µM) in assay [5]; 16 µg/mL (≈ 39.9 µM) in [7]; 16 µg/mL (≈ 39.9 µM) in assay [8]; 16 µg/mL (≈ 39.9 µM) in [11] (1st experiment); 16 µg/mL (≈ 39.9 µM) in assay [11] (2nd experiment, visual reading). For the same molecule, the MIC in assay [12] turned out to be 16 µg/mL (≈ 39.9 µM); in [13] (1st experiment), 16 µg/mL (≈ 39.9 µM); in [13] (2nd experiment, visual reading) it was 16 µg/mL (≈ 39.9 µM); in [14] (1st experiment), 0.5 µg/mL (≈ 1.25 µM); in assay [14] (2nd experiment, visual reading) it was 1 µg/mL (≈ 2.49 µM); in [16], 16 µg/mL (≈ 39.9 µM). Besides, the MIC in assay [17] was found to be 16 µg/mL (≈ 39.9 µM); in [18] (Acinetobacter spp. H064200250 (OXA51), 2nd experiment, visual reading), 16 µg/mL (≈ 39.9 µM); in assay [18] (Acinetobacter spp. H064200250, 1st experiment), 16 µg/mL (≈ 39.9 µM); in assay [19] (1st experiment), 16 µg/mL (≈ 39.9 µM); in assay [19] (2nd experiment, visual reading), 16 µg/mL (≈ 39.9 µM); in assay [21] (NCTC13301, A. baumannii NCTC 13301, visual reading, read-out: MIC without PB) it was 64 µg/mL (≈ 159 µM). Further, the MIC in assay [21] (11 strains, read-out: MIC range without PB 14-10-2008 n = 11) is 8 to 64 µg/mL (≈ 19.9 to 159 µM); in [22] it was 16 µg/mL (≈ 39.9 µM). Further, the “fold greater activity (fold lower MIC) in presence of polymyxin B compared to without polymyxin B” value in assay [21] is given as “not significantly affected”.
On to `Cc1c(-c2cccc(N)c2)ccn2c(=O)c(C(=O)O)cc(C3CC3)c12` [Compound 9, 8-(3-amino-phenyl)-1-cyclopropyl-9-methyl-4-oxo-quinolizine-3-carboxylic acid], for which the MIC in assay [24] amounted to 0.06 µg/mL (≈ 0.179 µM); in assay [25], 0.125 µg/mL (≈ 0.374 µM); in assay [26] it was 0.5 µg/mL (≈ 1.5 µM); in assay [27], 0.25 µg/mL (≈ 0.748 µM).

As usually defined, the MBC is the lowest tested concentration that kills the bacteria rather than only halting them.
